From patent EP4745137A1 (Gluetacs Therapeutics (Shanghai) Co., Ltd., priority 2023, dated 2025)
pIC50: −log10 of the molar value.

What was measured:
CK1α = target: T1, CK1α (Homo sapiens, UniProt P48729+Q96SW2); assay: Western-blot assay of substrate protein degradation in hPBMCs, CK1α; type: cell-based; conditions: 24 hours of compound treatment, compounds tested at 50 nM and 500 nM (concentration of the table not stated)
T1 construct: endogenous in cells; host or cells: hPBMCs (Milecell Biotechnologies)

[1] = target: T2, human Cereblon WT GST-tagged protein (Homo sapiens, UniProt Q96SW2); assay: CRBN-binding affinity by HTRF (CEREBLON BINDING kit); conditions: HTRF inhibitory activity, CEREBLON BINDING kit; read-out: HTRF IC50
T2 construct: purchased CISBIO 64BDCRBNPEH

IKZF2 = target: T3, IKZF2 (Homo sapiens, UniProt Q96SW2+Q9UKS7); assay: Western-blot assay of substrate protein degradation in hPBMCs, IKZF2; type: cell-based; conditions: 24 hours of compound treatment, compounds tested at 50 nM and 500 nM (concentration of the table not stated)
T3 construct: endogenous in cells; host or cells: hPBMCs (Milecell Biotechnologies)

MM.1S = assay: Tumor cell proliferation inhibition (CellTiter-Meiluncell Luminescent Cell Viability Assay), MM.1S; conditions: Homo sapiens, MM1.S, read-out: inhibitory activity (IC50, nM) against tumor cells proliferation, MM.1S
NCI-H1975 = assay: Tumor cell proliferation inhibition (CellTiter-Meiluncell Luminescent Cell Viability Assay), NCI-H1975; conditions: Homo sapiens, NCI-H1975, read-out: inhibitory activity (IC50, nM) against tumor cells proliferation, H1975
WEE1 = target: T4, WEE1 (Homo sapiens, UniProt P30291+Q96SW2); assay: Western-blot assay of substrate protein degradation in hPBMCs, WEE1; type: cell-based; conditions: 24 hours of compound treatment, compounds tested at 50 nM and 500 nM (concentration of the table not stated)
T4 construct: endogenous in cells; host or cells: hPBMCs (Milecell Biotechnologies)

IKZF1 = target: T5, IKZF1 (Homo sapiens, UniProt Q13422+Q96SW2); assay: Western-blot assay of substrate protein degradation in hPBMCs, IKZF1; type: cell-based; conditions: 24 hours of compound treatment, compounds tested at 50 nM and 500 nM (concentration of the table not stated)
T5 construct: endogenous in cells; host or cells: hPBMCs (Milecell Biotechnologies)

GSPT1 = target: T6, GSPT1 (Homo sapiens, UniProt P15170+Q96SW2); assay: Western-blot assay of substrate protein degradation in hPBMCs, GSPT1; type: cell-based; conditions: 24 hours of compound treatment, compounds tested at 50 nM and 500 nM (concentration of the table not stated)
T6 construct: endogenous in cells; host or cells: hPBMCs (Milecell Biotechnologies)

IKZF3 = target: T7, IKZF3 (Homo sapiens, UniProt Q96SW2+Q9UKT9); assay: Western-blot assay of substrate protein degradation in hPBMCs, IKZF3; type: cell-based; conditions: 24 hours of compound treatment, compounds tested at 50 nM and 500 nM (concentration of the table not stated)
T7 construct: endogenous in cells; host or cells: hPBMCs (Milecell Biotechnologies)

Jurkat = assay: Tumor cell proliferation inhibition (CellTiter-Meiluncell Luminescent Cell Viability Assay), Jurkat; conditions: Homo sapiens, read-out: inhibitory activity (IC50, nM) against tumor cells proliferation, Jurkat
TMD8 = assay: Tumor cell proliferation inhibition (CellTiter-Meiluncell Luminescent Cell Viability Assay), TMD8; conditions: Homo sapiens, TMD8, read-out: inhibitory activity (IC50, nM) against tumor cells proliferation, TMD8

T4 sequence (P30291 whole entry): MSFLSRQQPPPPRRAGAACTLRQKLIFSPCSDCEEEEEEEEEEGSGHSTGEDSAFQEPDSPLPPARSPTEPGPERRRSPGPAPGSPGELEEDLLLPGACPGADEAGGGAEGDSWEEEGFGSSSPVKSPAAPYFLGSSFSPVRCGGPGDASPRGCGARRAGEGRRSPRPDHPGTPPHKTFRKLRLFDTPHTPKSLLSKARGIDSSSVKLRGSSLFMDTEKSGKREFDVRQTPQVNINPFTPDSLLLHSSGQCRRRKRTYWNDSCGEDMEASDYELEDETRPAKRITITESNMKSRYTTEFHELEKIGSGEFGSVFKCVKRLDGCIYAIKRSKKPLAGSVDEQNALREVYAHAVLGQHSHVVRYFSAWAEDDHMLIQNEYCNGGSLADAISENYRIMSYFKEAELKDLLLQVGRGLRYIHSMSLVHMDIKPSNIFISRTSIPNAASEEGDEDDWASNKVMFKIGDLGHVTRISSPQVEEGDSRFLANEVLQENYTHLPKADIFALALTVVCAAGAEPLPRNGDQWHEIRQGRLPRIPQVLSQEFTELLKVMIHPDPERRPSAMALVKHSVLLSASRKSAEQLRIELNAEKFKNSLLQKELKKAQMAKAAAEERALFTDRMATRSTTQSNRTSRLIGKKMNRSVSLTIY
T4 sequence (Q96SW2 whole entry): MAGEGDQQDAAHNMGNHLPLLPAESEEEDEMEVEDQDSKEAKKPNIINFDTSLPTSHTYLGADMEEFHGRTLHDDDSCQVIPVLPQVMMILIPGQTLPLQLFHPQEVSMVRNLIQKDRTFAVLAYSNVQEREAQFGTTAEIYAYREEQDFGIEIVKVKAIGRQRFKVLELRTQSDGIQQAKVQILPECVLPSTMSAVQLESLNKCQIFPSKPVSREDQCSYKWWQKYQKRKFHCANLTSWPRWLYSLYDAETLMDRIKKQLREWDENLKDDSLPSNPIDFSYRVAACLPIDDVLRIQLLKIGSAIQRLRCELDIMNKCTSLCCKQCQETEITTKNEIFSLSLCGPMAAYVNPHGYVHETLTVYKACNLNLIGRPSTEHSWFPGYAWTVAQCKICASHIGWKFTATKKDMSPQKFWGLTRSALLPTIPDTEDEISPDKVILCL
T4 sequence (Q16531 whole entry partner): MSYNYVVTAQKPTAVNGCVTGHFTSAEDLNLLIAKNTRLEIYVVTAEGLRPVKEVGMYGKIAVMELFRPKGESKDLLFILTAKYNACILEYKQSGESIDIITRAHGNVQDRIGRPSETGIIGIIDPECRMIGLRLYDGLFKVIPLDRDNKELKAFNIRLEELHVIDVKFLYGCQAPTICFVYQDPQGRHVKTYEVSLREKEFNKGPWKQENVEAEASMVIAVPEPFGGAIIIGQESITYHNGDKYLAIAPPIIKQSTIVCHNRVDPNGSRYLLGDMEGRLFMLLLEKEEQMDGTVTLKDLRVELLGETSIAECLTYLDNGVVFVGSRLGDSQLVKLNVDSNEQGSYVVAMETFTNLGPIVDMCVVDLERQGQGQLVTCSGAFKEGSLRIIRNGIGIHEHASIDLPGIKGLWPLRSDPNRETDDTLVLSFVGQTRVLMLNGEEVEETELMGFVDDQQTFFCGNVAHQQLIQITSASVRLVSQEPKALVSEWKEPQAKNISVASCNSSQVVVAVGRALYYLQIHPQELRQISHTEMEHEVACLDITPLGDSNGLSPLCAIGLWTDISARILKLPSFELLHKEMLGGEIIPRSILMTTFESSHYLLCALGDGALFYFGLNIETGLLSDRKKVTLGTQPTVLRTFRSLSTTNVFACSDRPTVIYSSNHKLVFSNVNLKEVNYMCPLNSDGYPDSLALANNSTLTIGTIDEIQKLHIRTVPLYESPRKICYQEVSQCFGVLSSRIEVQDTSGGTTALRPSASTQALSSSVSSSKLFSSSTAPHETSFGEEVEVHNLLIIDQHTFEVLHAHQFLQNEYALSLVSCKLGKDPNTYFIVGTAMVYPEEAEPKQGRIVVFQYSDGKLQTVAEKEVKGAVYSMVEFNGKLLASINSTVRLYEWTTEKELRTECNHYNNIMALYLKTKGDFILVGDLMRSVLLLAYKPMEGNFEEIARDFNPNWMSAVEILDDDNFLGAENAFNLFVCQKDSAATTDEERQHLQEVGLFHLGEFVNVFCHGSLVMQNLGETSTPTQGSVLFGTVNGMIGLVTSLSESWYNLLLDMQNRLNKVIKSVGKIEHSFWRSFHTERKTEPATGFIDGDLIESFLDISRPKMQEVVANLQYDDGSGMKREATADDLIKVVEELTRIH
T6 sequence (P15170 whole entry): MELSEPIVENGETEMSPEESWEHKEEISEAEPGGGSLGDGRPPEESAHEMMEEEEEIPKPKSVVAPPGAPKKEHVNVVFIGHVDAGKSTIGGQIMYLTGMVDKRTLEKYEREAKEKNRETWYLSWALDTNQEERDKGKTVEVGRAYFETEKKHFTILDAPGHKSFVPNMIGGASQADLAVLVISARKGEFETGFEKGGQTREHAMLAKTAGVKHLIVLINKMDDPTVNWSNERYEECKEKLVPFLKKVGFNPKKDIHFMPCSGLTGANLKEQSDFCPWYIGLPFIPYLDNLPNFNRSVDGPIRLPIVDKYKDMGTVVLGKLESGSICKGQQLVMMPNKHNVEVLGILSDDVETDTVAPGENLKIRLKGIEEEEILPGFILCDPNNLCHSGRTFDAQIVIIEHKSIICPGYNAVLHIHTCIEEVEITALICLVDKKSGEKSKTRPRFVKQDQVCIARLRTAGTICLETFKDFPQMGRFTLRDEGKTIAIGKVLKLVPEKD
T6 sequence (Q96SW2 whole entry): as the sequence (Q96SW2 whole entry) above
T6 sequence (Q16531 whole entry partner): as the sequence (Q16531 whole entry partner) above
T5 sequence (Q13422 whole entry): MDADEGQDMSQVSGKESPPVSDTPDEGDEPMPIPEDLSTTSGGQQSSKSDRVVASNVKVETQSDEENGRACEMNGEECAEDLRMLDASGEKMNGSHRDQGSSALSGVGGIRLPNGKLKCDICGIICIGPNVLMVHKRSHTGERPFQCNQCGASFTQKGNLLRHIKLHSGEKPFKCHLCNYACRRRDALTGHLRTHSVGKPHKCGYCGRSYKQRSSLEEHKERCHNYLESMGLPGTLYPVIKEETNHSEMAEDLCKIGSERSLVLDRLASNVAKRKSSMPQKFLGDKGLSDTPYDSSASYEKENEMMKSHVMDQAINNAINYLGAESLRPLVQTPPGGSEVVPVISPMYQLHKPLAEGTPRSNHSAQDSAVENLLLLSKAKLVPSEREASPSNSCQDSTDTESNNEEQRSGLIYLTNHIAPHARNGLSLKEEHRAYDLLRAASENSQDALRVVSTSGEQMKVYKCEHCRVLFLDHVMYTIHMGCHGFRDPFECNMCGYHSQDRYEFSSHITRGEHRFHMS
T5 sequence (Q96SW2 whole entry): as the sequence (Q96SW2 whole entry) above
T5 sequence (Q16531 whole entry partner): as the sequence (Q16531 whole entry partner) above
T2 sequence (Q96SW2 whole entry): as the sequence (Q96SW2 whole entry) above
T3 sequence (Q9UKS7 whole entry): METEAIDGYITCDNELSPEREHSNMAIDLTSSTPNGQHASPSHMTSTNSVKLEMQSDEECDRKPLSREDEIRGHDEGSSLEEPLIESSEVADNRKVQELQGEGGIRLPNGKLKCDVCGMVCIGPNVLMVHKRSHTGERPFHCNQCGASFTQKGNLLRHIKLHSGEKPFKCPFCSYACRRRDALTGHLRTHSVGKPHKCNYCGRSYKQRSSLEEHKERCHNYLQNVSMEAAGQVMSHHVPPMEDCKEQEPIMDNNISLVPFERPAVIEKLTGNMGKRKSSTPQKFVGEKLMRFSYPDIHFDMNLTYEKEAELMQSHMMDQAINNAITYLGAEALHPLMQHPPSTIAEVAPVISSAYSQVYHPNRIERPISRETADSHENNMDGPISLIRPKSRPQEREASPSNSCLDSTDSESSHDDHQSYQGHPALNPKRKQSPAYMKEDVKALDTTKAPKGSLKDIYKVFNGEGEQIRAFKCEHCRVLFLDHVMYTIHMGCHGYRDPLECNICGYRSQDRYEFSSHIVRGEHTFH
T3 sequence (Q96SW2 whole entry): as the sequence (Q96SW2 whole entry) above
T3 sequence (Q16531 whole entry partner): as the sequence (Q16531 whole entry partner) above
T7 sequence (Q9UKT9 whole entry): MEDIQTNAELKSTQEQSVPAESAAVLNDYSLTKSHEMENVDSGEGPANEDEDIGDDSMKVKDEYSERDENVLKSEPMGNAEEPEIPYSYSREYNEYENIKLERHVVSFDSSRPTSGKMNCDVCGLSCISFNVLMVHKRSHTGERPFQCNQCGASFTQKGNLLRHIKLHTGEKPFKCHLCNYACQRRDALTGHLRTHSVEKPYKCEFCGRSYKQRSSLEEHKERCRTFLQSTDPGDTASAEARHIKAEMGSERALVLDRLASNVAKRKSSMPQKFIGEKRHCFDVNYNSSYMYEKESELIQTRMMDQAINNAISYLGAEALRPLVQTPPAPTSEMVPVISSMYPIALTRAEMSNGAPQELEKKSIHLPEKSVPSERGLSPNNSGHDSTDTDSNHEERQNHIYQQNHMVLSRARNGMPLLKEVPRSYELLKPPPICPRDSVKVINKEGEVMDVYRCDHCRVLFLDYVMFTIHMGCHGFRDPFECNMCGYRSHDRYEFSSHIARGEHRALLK
T7 sequence (Q96SW2 whole entry): as the sequence (Q96SW2 whole entry) above
T7 sequence (Q16531 whole entry partner): as the sequence (Q16531 whole entry partner) above

SMILES | CK1a substrate protein remaining % (CK1α) | pIC50 [1] | IKZF2 substrate protein remaining % (IKZF2) | IC50 (MM.1S) [nM] | IC50 (NCI-H1975) [nM] | Weel substrate protein remaining % (WEE1) | IKZF 1 substrate protein remaining % (IKZF1) | GSPT1 substrate protein remaining % (GSPT1) | IKZF3 substrate protein remaining % (IKZF3) | IC50 (Jurkat) [nM] | IC50 (TMD8) [nM]
O=C1CCC(N2Cc3cc(CN4CCC(c5noc6ccccc56)CC4)ccc3C2=O)C(=O)N1 (stereo not shown) [GT-04907, 3-(5-((4-(benzo[d]isoxazol-3-yl)piperidin-1-yl)methyl)-1-oxoisoindolin-2-yl)piperidine-2,6-dione] | B (80%< substrate protein remaining %≤ 100%) | > 6.30 | A (0% ≤ substrate protein remaining % ≤ 80%) | 1 to 5 | 50 to 100 | A (0% ≤ substrate protein remaining % ≤ 80%) | A (0% ≤ substrate protein remaining % ≤ 80%) | A (0% ≤ substrate protein remaining % ≤ 80%) | A (0% ≤ substrate protein remaining % ≤ 80%) | 50 to 100 | 
O=C1CCC(N2Cc3cc(CN4CC=C(c5ncnc6sc7c(c56)CCCC7)CC4)ccc3C2=O)C(=O)N1 (stereo not shown) [GT-05266, 3-(1-oxo-5-((4-(5,6,7,8-tetrahydrobenzo[4,5]thieno[2,3-d]pyrimidin-4-yl)-3,6-dihydropyridin-1(2H)-yl)methyl)isoindolin-2-yl)piperidine-2,6-dione] | A (0% ≤ substrate protein remaining % ≤ 80%) | > 6.30 | A (0% ≤ substrate protein remaining % ≤ 80%) | 5 to 10 |  | A (0% ≤ substrate protein remaining % ≤ 80%) | A (0% ≤ substrate protein remaining % ≤ 80%) | A (0% ≤ substrate protein remaining % ≤ 80%) | A (0% ≤ substrate protein remaining % ≤ 80%) |  | 10 to 50
O=C1CCC(N2C(=O)c3ccc(CN4CCN(c5cccc6sccc56)CC4)cc3C2=O)C(=O)N1 (stereo not shown) [GT-04915, 5-((4-(benzo[b]thiophen-4-yl)piperazin-1-yl)methyl)-2-(2,6-dioxopiperidin-3-yl)isoindoline-1,3-dione] | A (0% ≤ substrate protein remaining % ≤ 80%) |  | A (0% ≤ substrate protein remaining % ≤ 80%) | 100 to 500 | 500 to 1000 | A (0% ≤ substrate protein remaining % ≤ 80%) | A (0% ≤ substrate protein remaining % ≤ 80%) | A (0% ≤ substrate protein remaining % ≤ 80%) | A (0% ≤ substrate protein remaining % ≤ 80%) | 100 to 500 | 
O=C1CCC(N2Cc3cc(CN4CCN(c5nc(N6CCCCC6)nc6c5SCC6)CC4)ccc3C2=O)C(=O)N1 (stereo not shown) [GT-05380, 3-(1-oxo-5-((4-(2-(piperidin-1-yl)-6,7-dihydrothieno[3,2-d]pyrimidin-4-yl)piperazin-1-yl)methyl)isoindolin-2-yl)piperidine-2,6-dione] | A (0% ≤ substrate protein remaining % ≤ 80%) | 6.00 to 6.30 | A (0% ≤ substrate protein remaining % ≤ 80%) | 1 to 5 |  | A (0% ≤ substrate protein remaining % ≤ 80%) | A (0% ≤ substrate protein remaining % ≤ 80%) | A (0% ≤ substrate protein remaining % ≤ 80%) | A (0% ≤ substrate protein remaining % ≤ 80%) |  | 10 to 50
O=C1CCC(N2Cc3cc(CN4CCC(n5cnc6cc(F)ccc65)CC4)ccc3C2=O)C(=O)N1 (stereo not shown) [GT-04905, 3-(5-((4-(5-fluoro-1H-benzo[d]imidazol-1-yl)piperidin-1-yl)methyl)-1-oxoisoindolin-2-yl)piperidine-2,6-dione] | B (80%< substrate protein remaining %≤ 100%) | > 6.30 | A (0% ≤ substrate protein remaining % ≤ 80%) | 1 to 5 | 100 to 500 | B (80%< substrate protein remaining %≤ 100%) | B (80%< substrate protein remaining %≤ 100%) | A (0% ≤ substrate protein remaining % ≤ 80%) | A (0% ≤ substrate protein remaining % ≤ 80%) | 100 to 500 | 
Cc1nc(N2CCN(Cc3ccc4c(c3)CN(C3CCC(=O)NC3=O)C4=O)CC2)c2c3c(sc2n1)CCCC3 (stereo not shown) [GT-04900, 3-(5-((4-(2-methyl-5,6,7,8-tetrahydrobenzo[4,5]thieno[2,3-d]pyrimidin-4-yl)piperazin-1-yl)methyl)-1-oxoisoindolin-2-yl)piperidine-2,6-dione] | A (0% ≤ substrate protein remaining % ≤ 80%) | > 6.30 | A (0% ≤ substrate protein remaining % ≤ 80%) | 10 to 50 |  | B (80%< substrate protein remaining %≤ 100%) | A (0% ≤ substrate protein remaining % ≤ 80%) | B (80%< substrate protein remaining %≤ 100%) | A (0% ≤ substrate protein remaining % ≤ 80%) |  | 
O=C1CCC(N2Cc3cc(CN4CC5CCC4CN5c4cccc(Cl)c4Cl)ccc3C2=O)C(=O)N1 (stereo not shown) [GT-04930, 3-(5-((5-(2,3-dichlorophenyl)-2,5-diazabicyclo[2.2.2]octan-2-yl)methyl)-1-oxoisoindolin-2-yl)piperidine-2,6-dione] | B (80%< substrate protein remaining %≤ 100%) | > 6.30 | A (0% ≤ substrate protein remaining % ≤ 80%) | 10 to 50 |  | A (0% ≤ substrate protein remaining % ≤ 80%) | A (0% ≤ substrate protein remaining % ≤ 80%) | A (0% ≤ substrate protein remaining % ≤ 80%) | A (0% ≤ substrate protein remaining % ≤ 80%) |  | 
Cc1nc(C2=CCN(Cc3ccc4c(c3)CN(C3CCC(=O)NC3=O)C4=O)CC2)c2c3c(sc2n1)CCCC3 (stereo not shown) [GT-04863, 3-(5-((4-(2-methyl-5,6,7,8-tetrahydrobenzo[4,5]thieno[2,3-d]pyrimidin-4-yl)-3,6-dihydropyridin-1 (2H)-yl)methyl)-1-oxoisoindolin-2-yl)piperidine-2,6-dione] | A (0% ≤ substrate protein remaining % ≤ 80%) | > 6.30 | A (0% ≤ substrate protein remaining % ≤ 80%) | 10 to 50 |  | A (0% ≤ substrate protein remaining % ≤ 80%) | A (0% ≤ substrate protein remaining % ≤ 80%) | A (0% ≤ substrate protein remaining % ≤ 80%) | A (0% ≤ substrate protein remaining % ≤ 80%) |  | 
O=C1CCC(N2Cc3cc(CN4C[C@@H]5C[C@H]4CN5c4cccc(Cl)c4Cl)ccc3C2=O)C(=O)N1 (stereo partly drawn) [GT-04898, 3-(5-(((1S,4S)-5-(2,3-dichlorophenyl)-2,5-diazabicyclo[2.2.1]heptan-2-yl)methyl)-1-oxoisoindolin-2-yl)piperidine-2,6-dione] | B (80%< substrate protein remaining %≤ 100%) | > 6.30 | A (0% ≤ substrate protein remaining % ≤ 80%) | 5 to 10 |  | B (80%< substrate protein remaining %≤ 100%) | A (0% ≤ substrate protein remaining % ≤ 80%) | A (0% ≤ substrate protein remaining % ≤ 80%) | A (0% ≤ substrate protein remaining % ≤ 80%) |  | 
